Reference: ChEMBL document CHEMBL5608251, “Virtual Screening and Molecular Docking: Discovering Novel METTL3 Inhibitors” (ACS Med Chem Lett, 2024)

Assays:
[1] = molecular target: METTL3/METTL14 (Homo sapiens, UniProt Q86U44); assay: Inhibition of recombinant METTL3/METTL14 (unknown origin) by radioactivity based assay; format: protein-complex assay
[2] = molecular target: METTL3/METTL14 (Homo sapiens) (UniProt Q86U44+Q9HCE5); assay: Inhibition of METTL3/METTL14 (unknown origin) using SAM as substrate at 25 uM incubated for 360 mins by luminescence based assay relative to control; format: protein-complex assay
[3] = test system: PC-9; assay: Antiproliferative activity against human PC-9 cells assessed as inhibition of cell growth incubated for 72 hrs by CCK-8 assay; format: functional, cell-based; conditions: PC-9, 72 h
[4] = test system: NCI-H1975; assay: Antiproliferative activity against human NCI-H1975 cells assessed as inhibition of cell growth incubated for 72 hrs by CCK-8 assay; format: functional, cell-based; conditions: NCI-H1975, 72 h

Sequence of METTL3/METTL14 (Q86U44 whole entry): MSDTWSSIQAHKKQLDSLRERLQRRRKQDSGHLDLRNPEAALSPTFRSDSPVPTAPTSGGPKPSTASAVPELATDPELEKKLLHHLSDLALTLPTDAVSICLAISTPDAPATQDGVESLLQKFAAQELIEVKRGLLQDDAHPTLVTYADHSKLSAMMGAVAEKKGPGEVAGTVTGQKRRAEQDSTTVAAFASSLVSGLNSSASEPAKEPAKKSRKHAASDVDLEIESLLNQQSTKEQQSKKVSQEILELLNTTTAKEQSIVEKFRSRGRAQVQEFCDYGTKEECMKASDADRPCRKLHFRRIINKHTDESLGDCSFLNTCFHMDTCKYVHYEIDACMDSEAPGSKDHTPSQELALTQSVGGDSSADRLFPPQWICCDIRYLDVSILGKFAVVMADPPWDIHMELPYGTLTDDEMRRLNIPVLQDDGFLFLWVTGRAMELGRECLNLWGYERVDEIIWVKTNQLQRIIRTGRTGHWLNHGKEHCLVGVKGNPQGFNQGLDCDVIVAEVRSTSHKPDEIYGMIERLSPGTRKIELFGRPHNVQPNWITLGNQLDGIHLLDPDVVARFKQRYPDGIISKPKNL
Sequence of METTL3/METTL14 (Q9HCE5 whole entry, further chain): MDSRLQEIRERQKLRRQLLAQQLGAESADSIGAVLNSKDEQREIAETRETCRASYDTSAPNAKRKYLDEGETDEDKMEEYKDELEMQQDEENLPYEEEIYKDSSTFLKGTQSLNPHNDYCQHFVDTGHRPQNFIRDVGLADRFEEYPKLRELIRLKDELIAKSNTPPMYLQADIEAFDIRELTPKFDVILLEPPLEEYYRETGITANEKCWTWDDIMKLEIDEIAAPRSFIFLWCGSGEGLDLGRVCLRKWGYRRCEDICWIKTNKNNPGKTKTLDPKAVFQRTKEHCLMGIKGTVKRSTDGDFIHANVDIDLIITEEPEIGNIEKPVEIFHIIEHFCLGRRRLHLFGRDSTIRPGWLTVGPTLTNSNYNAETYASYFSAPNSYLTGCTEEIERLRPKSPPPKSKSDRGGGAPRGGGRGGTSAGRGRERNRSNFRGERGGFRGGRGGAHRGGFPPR

| Structure (SMILES) | inhibition [2] [%] | also measured |
| --- | --- | --- |
| Nc1ncnc2c1ncn2[C@@H]1O[C@H](C[C@@H](N)CC[C@H](N)C(=O)O)[C@@H](O)[C@H]1O [SINEFUNGIN] | – | IC50 [1]: 2.36 µM |
| CC(=O)Nc1ccc(C)cc1NC(=O)CCC1COc2ccccc2O1 (stereo not given) | 38.9 | – |
| CC(=O)c1ccc(NC(=O)CSc2ncc(CO)n2Cc2ccc(F)cc2)cc1 | 3.39 | – |
| O=C(CCSc1nc(-c2ccco2)cc(C(F)(F)F)n1)NCc1ccco1 | 36.3 | – |
| CCn1c(SCC(=O)Nc2ccc(C)c(F)c2)nc2c3cc(OC)ccc3n(C)c2c1=O | 32.1 | – |
| O=C(CNC(=O)c1ccco1)N/N=C/c1cc(Br)cc(Br)c1OC(=O)c1cccc(F)c1 | 35.3 | – |
| COc1ccc(-c2nc(C[S+]([O-])CC(=O)NCc3ccco3)c(C)o2)cc1 (stereo not given) | 32.5 | – |
| COc1ccc(C(=O)Nc2cccc(OCc3cc(=O)n4ccc(C)cc4c3)c2)cc1OC | 25.1 | – |
| COc1ccc(NC(=O)CCn2ccc(=O)[nH]c2=O)c(O)c1 | 30.5 | – |
| O=C(CCCn1c(SCC(=O)Nc2ccc(F)cc2)nc2c(sc3ccccc32)c1=O)NCCO | 6.31 | – |
| COc1ccc(NC(=O)CCn2ccc(=O)[nH]c2=O)cc1 | 22.4 | – |
| CCOC(=O)CC(=O)CSc1nc2c(sc(=S)n2-c2ccc(C(=O)OCC)cc2)c2nc3ccccc3n12 | 46.2 | IC50 [3]: 213 µM; IC50 [4]: 197 µM |
| CNC(=O)Cn1c(CO)cnc1SCC(=O)Nc1ccc(C(C)=O)cc1 | 31.1 | – |
| COc1ccc(NC(=O)Cn2cc(C(=O)c3ccc(C)cc3)c(=O)c3cc(OC)c(OC)cc32)cc1OC | 24.1 | – |
| O=C1c2ccc(Oc3cccc(Oc4ccc5c(c4)C(=O)N(c4ccc(O)cc4)C5=O)c3)cc2C(=O)N1c1ccc(O)cc1 | 65.6 | IC50 [3]: 216 µM; IC50 [4]: 180 µM |
| CCn1c(N2CCCC(C(=O)Nc3ccc4[nH]c(=O)[nH]c4c3)C2)cc(=O)n(C)c1=O (stereo not given) | 36.7 | – |
